The record followed here is PubChem BioAssay AID686920 (Broad Institute, 2013).

The test system of the test is A673 NR0B1-luciferase reporter, viability-normalised luminescence. The test is described as follows: NR0B1 reporter signal reduction in A673 cells – cell-based, luciferase luminescence, cherry-pick, EWS/Fli inhibitor project, dose response (AID 686920).
Turning to `COc1ccc(CNc2ncc(-c3ccc(F)cc3)n2C)c2ccccc12`, the AC35 was 6.93 µM.
Regarding `COc1ccc(CN(C)c2ncnc3sccc23)c(OC)c1OC`, the AC35 was 10.7 µM.
Regarding `Nc1nc(N)c(-c2cccc(C(F)(F)F)c2)c(Cc2cccc(C(F)(F)F)c2)n1`, the AC35 was 2.54 µM.
The value for `C[C@@H]1O[C@@H](O[C@H]2C[C@@H](O)[C@]3(CO)[C@@H]4C(CC[C@]3(O)C2)[C@@]2(O)CC[C@H](C3COC(=O)C3)[C@@]2(C)C[C@H]4O)[C@H](O)[C@H](O)[C@H]1O` (stereo partly specified) was 1.97 µM.
On to `COc1cc(/C=N/NS(=O)(=O)c2ccc3ccccc3c2)ccc1OCc1ccc(C(=O)O)cc1`, for which the AC35 is 2.91 µM.
`Cc1cc(C)cc(C(=O)NC(=S)Nc2ccc(Cc3ccncc3)cc2)c1`: the AC35 was 7.99 µM.
The figure for `COc1ccc(-c2sc3ccccc3c2-c2ccc(OCCN3CCCCC3)cc2)cc1` is 7.87 µM; for `Cc1cc2c(C(C)C)c(O)c(O)c(C=O)c2c(O)c1-c1c(C)cc2c(C(C)C)c(O)c(O)c(C=O)c2c1O` it is 7.16 µM.
As for `COc1cc(/C=N/NS(=O)(=O)c2ccc(C)cc2)ccc1OCc1cccc(C(=O)O)c1`, the AC35 was 4.09 µM.
On to `CC12CCC3C(CCC4(O)CC(O)CCC34C=NO)C1(O)CCC2C1=COC(=O)C1` (stereo unspecified), for which the AC35 was 0.293 µM.
As for `COc1ccc(/C=C/C(=O)c2ccc(C(=O)/C=C/c3ccc(OC)c(OC)c3)cc2)cc1OC`, the AC35 was 6.78 µM.
As to `CCCNC(=O)N1[C@H](C#N)[C@H](c2ccc(C#Cc3ccc(F)cc3)cc2)[C@H]1CO`, the AC35 was 10.1 µM.
The figure for `C/C(=N\OCc1cccc(C(=O)O)c1)c1ccc(Cl)cc1` is 0.832 µM.
In the case of `Cc1ccc(NC(=O)CCN2CCCCC2)cc1`, the AC35 was 26.1 µM.
For the compound `O=C1NC(=O)N(Cc2ccco2)C(=O)/C1=C/C=C/c1ccco1`, the AC35 was 6.32 µM.
As for `CCc1ccc2oc(C(=O)N3CCN(c4ccccc4OC)CC3)cc(=O)c2c1`, the AC35 is 10.7 µM.
The value for `COc1cc(/C=C/C(=O)CC(=O)/C=C/c2ccc(O)c(OC)c2)ccc1O` was 7.91 µM; that for `O=C(Nc1ccc2c(c1)OCO2)N1C[C@@H]2N[C@H](C1)C2c1ccc(C=Cc2ccccc2)cc1` (stereo partly specified) was 19 µM.
In the case of `CCN(CC)C(=O)CN1C(=O)C(=O)c2ccccc21`, the AC35 was 42 µM.
As to `CN(C)c1ccc(N=Nc2ccc(C(=O)O)cc2)cc1`, the AC35 was 5.73 µM.
The figure for `CC(C)(C)c1ccc(Oc2ccc(NC(=O)c3ccccc3C(=O)O)cn2)cc1` is 5.78 µM; for `CN1c2ccc(-c3ccc(C#N)cc3)cc2[C@H]2[C@H](CCN2S(=O)(=O)c2cccc(F)c2)[C@@H]1CO` it is 4.64 µM.
As for `COc1cc(/C=C/C(=O)/C=C(O)/C=C/c2ccc(O)c(OC)c2)ccc1O`, the AC35 was 5.92 µM.
Regarding `O=C(NC[C@@H]1N[C@@H](CO)[C@H]1c1ccc(C2=CCCCC2)cc1)c1cccc(F)c1`, the AC35 is 29.8 µM.
Take `Cc1cc(C(=O)Nc2ccc3c(c2)C(=O)N(C)[C@@H]2CC[C@@H](CC(=O)NCc4ccc(-c5ccccc5)cc4)O[C@H]2CO3)no1`: the AC35 was 6.29 µM.
For `O=c1c2ccccc2oc2cc(C#CC3(O)CCCCC3)ccc12`, the AC35 was 4.33 µM.
For the compound `CCOc1ccc(-c2noc(CCC(=O)O)n2)cc1`, the AC35 is 1.17 µM.
As for `Cc1cc2sc3ccc(C#CC4(O)CCCCC4)cc3c(=O)c2cc1C`, the AC35 was less than 0.03 µM.
On to `C=C(C(=O)c1ccccc1)C(C(=C)C(=O)c1ccccc1)c1ccc(OC)cc1`, for which the AC35 was 4.37 µM.
As for `C[C@@H]1O[C@@H](O[C@@H]2C=C3CCC4C(CC[C@]5(C)[C@@H](c6ccc(=O)oc6)CC[C@]45O)[C@@]3(C)CC2)[C@H](O)[C@H](O)[C@H]1O` (stereo partly specified), the AC35 is less than 0.09 µM.
Turning to `COc1ccc(CC(N)c2csc(NC(=O)Nc3cccc(C(F)(F)F)c3)n2)cc1` (stereo unspecified), the AC35 is 9.72 µM.
`COC(=O)CC1(C(=O)OC)Oc2ccc(Br)cc2C(=O)N1c1cccc(Cl)c1Cl` (stereo unspecified): the AC35 is 15 µM.
`CCN1/C(=C/C(C)=C/c2sc3ccccc3[n+]2CC)Sc2ccccc21`: the AC35 was 1.56 µM.
For the compound `Nc1ccc(Oc2cccc(Oc3ccc(N)cc3)c2)cc1`, the AC35 is 1.15 µM.
Take `C[C@]12CC[C@H](O)C[C@H]1CC[C@@H]1[C@@H]2C[C@@H](O)[C@]2(C)[C@@H](C3=CC(=O)OC3)CC[C@]12O`: the AC35 is 1 µM.
The value for `C[C@@H]1CN([C@@H](C)CO)C(=O)c2cc(NS(=O)(=O)c3ccccc3)ccc2O[C@@H]1CN(C)Cc1ccc(C(=O)Nc2ccccc2N)cc1` was 9.16 µM; that for `COc1ccc(NC(=O)c2cc3ccccc3oc2=O)cc1` was 2.99 µM.
With `CCOc1cc(/C=N/Nc2cc(C)nc(-n3nc(C)cc3C)n2)ccc1O`, the AC35 is 35.8 µM.
On to `O=C(Nc1cccc(S(=O)(=O)N2CCCC2)c1)c1ccc(Cl)nc1`, for which the AC35 was 8.45 µM.
The value for `C[C@H](CO)N1C[C@H](C)[C@H](CN(C)Cc2ccc(C(=O)Nc3ccccc3N)cc2)Oc2ccc(N(C)C)cc2C1=O` was 11.7 µM; that for `C[C@@H]1CN([C@@H](C)CO)S(=O)(=O)c2ccc(C#Cc3ccncc3)cc2O[C@H]1CN(C)S(=O)(=O)c1ccccc1` was 15.2 µM; that for `COc1ccc(N=C(NN)c2ccc3ccccc3n2)cc1` was 21.8 µM.
Regarding `Cc1ccc2oc(/N=C(\N)NC(=O)C(C)(C)C)nc2c1`, the AC35 was 0.18 µM.
`COc1ccccc1/C=C1\SC(=S)N(CCC(=O)Nc2cc(C)on2)C1=O`: the AC35 was 16.8 µM.
As to `COC(=O)C[C@@H]1CC[C@@H]2[C@H](COc3ccc(NC(=O)c4ccc(C(F)(F)F)cc4)cc3C(=O)N2C)O1`, the AC35 was 12.1 µM.
The figure for `CN1C2CCC1/C(=C/c1ccccn1)C(=O)/C2=C\c1ccccn1` is 1.87 µM; for `CCOc1ccc(/C=C2\CCc3ccccc3C2=O)cc1` it is 9.24 µM; for `OCCN1CCN(C(=S)c2ccc(-c3ccccc3)cc2)CC1` it is 1.94 µM.
The figure for `O=C(O)c1cccc(N/N=C/c2cccs2)c1` is 1.25 µM; for `COC1C(C)OC(OC2CC(C)(O)Cc3cc4c(c(O)c32)C(=O)c2c(O)cc3c(c2C4=O)OC2OC3(C)C(O)C(N(C)C)C2O)C(OC)C1(C)OC` (stereo unspecified) it is 0.0829 µM; for `CC(=O)c1ccc(N=Nc2ccc(C)cc2)cc1` it is 8.92 µM.
The figure for `C[C@H](CO)N1C[C@H](C)[C@@H](CN(C)Cc2ccc(Oc3ccccc3)cc2)Oc2ccc(NS(=O)(=O)c3ccc(Cl)cc3)cc2CC1=O` is 22.8 µM; for `O=C(Nc1nc(-c2ccc(F)c(F)c2)cs1)c1ccc(OCC2CCCO2)cc1` (stereo unspecified) it is 30 µM.
`O=C(C1CC1)N1C[C@@H]2N[C@H](C1)C2c1ccc(/C=C/c2ccccc2)cc1` (stereo partly specified): the AC35 is 26.1 µM.
The value for `CCN(Cc1ccccc1)c1ccc(/C=N/N=C(N)N)cc1` was 10.6 µM; that for `CO[C@H]1CN(C)C(=O)c2cc(NC(=O)NC(C)C)ccc2OC[C@H](C)N(Cc2ccc(-c3ccccn3)cc2)C[C@@H]1C` was 5.22 µM; that for `Nc1sc(-c2ccccc2)cc1-c1n[nH]c(=S)n1C1CCCCC1` was 3.67 µM.
`O=C(Sc1cccc2cccnc12)c1ccccc1Br`: the AC35 was 16.6 µM.
Take `Oc1[nH]c2ccc(Br)cc2c1N=NC(=S)N1CCOCC1`: the AC35 was 26.5 µM.
Consider `COc1cc(C(=O)N2CCC(N3CCN(C)CC3)CC2)ccc1Nc1ncc2c(n1)N(C)c1ccccc1C(=O)N2C`, for which the AC35 was 4.75 µM.
The figure for `N#C[C@H]1[C@H](c2ccc(C#Cc3ccccc3F)cc2)[C@@H](CO)N1C(=O)C1CCOCC1` is 34 µM.
For the compound `C[C@@H]1CN([C@H](C)CO)C(=O)Cc2cc(NC(=O)CCCCCC(=O)Nc3ccccc3N)ccc2O[C@@H]1CN(C)CC1CCCCC1`, the AC35 is 7.74 µM.
`OC[C@H]1[C@@H](c2ccc(C#CC3CCCC3)cc2)[C@@H]2CN(CCC(F)(F)F)CCCCN12`: the AC35 was 9.24 µM.
Take `Cc1c(Cl)cccc1NC(=O)CCC(=O)N/N=C/c1ccc[nH]1`: the AC35 was 4.78 µM.
`COc1ccc(C(CCNCc2ccc(OC(C)C)cc2)C(C)C)cc1` (stereo unspecified): the AC35 was 15.2 µM.
As to `O=c1cc(-c2ccccc2)oc2ccc3ccccc3c12`, the AC35 was 1.43 µM.
As for `CCOC(=O)C1CCCCN1C(=O)CCc1c(C)nc2cc(-c3ccccc3)nn2c1C` (stereo unspecified), the AC35 was 1.16 µM.
`O=C(CCc1ccccc1)NC(c1cccs1)c1cc(Cl)c2cccnc2c1O` (stereo unspecified): the AC35 is 5.42 µM.
Take `Cc1cccc(N2CCN(C3C(=O)Nc4ccccc4-n4nnnc43)CC2)c1C` (stereo unspecified): the AC35 was 9.29 µM.
As for `C[C@]12CC[C@H]3[C@@H](CC[C@]4(O)C[C@@H](O)CC[C@]34C=O)[C@@]1(O)CC[C@@H]2C1=CC(=O)OC1`, the AC35 was 0.626 µM.
Take `CC(C)(C)C(=O)Cn1ncc(Cl)c(Cl)c1=O`: the AC35 was 12.9 µM.
As for `COc1ccc2nc(-c3ccc(F)cc3)sc2c1`, the AC35 was 8.38 µM.
Regarding `CCCCCCCCCCCCCCCCCCNc1ccn(C2OC(COP(=O)(O)OCC3OC(n4cc(F)c(=O)[nH]c4=O)CC3O)C(O)C2O)c(=O)n1` (stereo unspecified), the AC35 is 18.8 µM.
`CN(CCO)c1ccc(/C=N/Nc2nncc3ccccc23)cc1`: the AC35 is 5.2 µM.
For the compound `CC(C)CC#Cc1ccc([C@@H]2[C@@H](CO)N3CCCCN(S(=O)(=O)c4ccc(F)cc4)C[C@H]23)cc1`, the AC35 was 14.1 µM.
For `CC1OC(OC2CC(O)C3(CO)C4C(O)CC5(C)C(C6=CC(=O)OC6)CCC5(O)C4CCC3(O)C2)C(O)C(O)C1O` (stereo unspecified), the AC35 is 0.0738 µM.
For `CCCCc1c(-c2ccccc2OC)ncn1Cc1ccc(C(C)(C)C)cc1`, the AC35 is 10 µM.
Consider `C[C@@H]1CN([C@@H](C)CO)C(=O)Cc2cc(NS(=O)(=O)c3cccs3)ccc2O[C@H]1CN(C)Cc1ccc(Cl)c(Cl)c1`, for which the AC35 was 3.76 µM.
The value for `N#C[C@@H]1[C@H](c2ccc(C#Cc3ccc(F)cc3)cc2)[C@@H](CO)N1C(=O)Nc1ccc(F)cc1` was 5.54 µM; that for `CC(=O)Nc1cccc(-c2ccnc3c2CC(C)(C(=O)NCc2ccc(N(C)C)cc2)O3)c1` (stereo unspecified) was 7.51 µM.
The figure for `Cc1ccc2c(=O)n3c(nc2c1)C(Cc1ccc(O)cc1)NC(=O)c1cc2ccccc2cc1-3` (stereo unspecified) is 6.25 µM; for `COc1ccc(C(=O)CN2C(=O)c3ccccc3S2(=O)=O)cc1` it is 0.279 µM; for `O=C1/C(=C\c2ccccc2)CN(C(=O)CCN2CCCCC2)C/C1=C/c1ccccc1` it is 2.54 µM.
With `O=c1[nH]c(=O)n([C@H]2C[C@H](O)[C@@H](CO)O2)cc1F`, the AC35 is 2.63 µM.
On to `O=C(NCCc1ccccc1)c1ccccc1NC(=O)C1CCCO1` (stereo unspecified), for which the AC35 is 6.89 µM.
The value for `CN=c1scc(-c2cccs2)n1/N=C/c1ccccc1O` was 0.298 µM.
